Results: patent US20080234262A1 (Wyeth, priority 2007, published 2008)

These compounds were tested against PI3K (Homo sapiens, UniProt P42336) (assay: Fluorescence polarization assay for PI3K). Conditions: PI3Kα; read-out: PI3Kα IC50.
Type: biochemical
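Further: PI3K kinase reaction on PIP2 with ATP, 30-60 min, product sensed by GST-GRP with red probe in fluorescence polarization (mP), controls without enzyme and at zero time.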

Chain of PI3K (P42336 whole entry): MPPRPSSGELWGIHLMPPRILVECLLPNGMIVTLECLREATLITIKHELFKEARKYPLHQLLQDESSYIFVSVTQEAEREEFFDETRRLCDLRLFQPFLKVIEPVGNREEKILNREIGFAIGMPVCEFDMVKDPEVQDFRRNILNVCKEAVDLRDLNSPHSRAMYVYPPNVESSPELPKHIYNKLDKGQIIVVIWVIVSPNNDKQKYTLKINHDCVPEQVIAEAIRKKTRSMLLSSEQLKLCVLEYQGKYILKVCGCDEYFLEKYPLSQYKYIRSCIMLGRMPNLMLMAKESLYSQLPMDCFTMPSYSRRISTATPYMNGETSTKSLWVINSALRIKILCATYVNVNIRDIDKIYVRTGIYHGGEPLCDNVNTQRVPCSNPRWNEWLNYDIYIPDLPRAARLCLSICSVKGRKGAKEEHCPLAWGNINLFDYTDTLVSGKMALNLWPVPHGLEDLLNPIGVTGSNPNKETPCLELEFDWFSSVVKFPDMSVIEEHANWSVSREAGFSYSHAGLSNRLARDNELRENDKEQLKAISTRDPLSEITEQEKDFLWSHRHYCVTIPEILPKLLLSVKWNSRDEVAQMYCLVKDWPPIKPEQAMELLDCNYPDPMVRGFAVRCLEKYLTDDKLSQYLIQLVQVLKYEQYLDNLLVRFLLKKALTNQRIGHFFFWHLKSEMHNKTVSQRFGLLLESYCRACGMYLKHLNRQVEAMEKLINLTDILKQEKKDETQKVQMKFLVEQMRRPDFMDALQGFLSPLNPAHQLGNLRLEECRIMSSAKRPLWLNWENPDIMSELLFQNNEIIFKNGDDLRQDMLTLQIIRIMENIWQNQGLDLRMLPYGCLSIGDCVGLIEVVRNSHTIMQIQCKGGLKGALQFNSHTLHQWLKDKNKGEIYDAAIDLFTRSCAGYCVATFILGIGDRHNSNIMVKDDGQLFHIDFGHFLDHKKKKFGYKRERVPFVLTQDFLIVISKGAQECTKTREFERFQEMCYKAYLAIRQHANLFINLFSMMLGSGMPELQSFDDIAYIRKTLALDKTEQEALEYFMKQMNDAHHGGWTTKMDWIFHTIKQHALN
Chain of PI3K (P27986 whole entry partner): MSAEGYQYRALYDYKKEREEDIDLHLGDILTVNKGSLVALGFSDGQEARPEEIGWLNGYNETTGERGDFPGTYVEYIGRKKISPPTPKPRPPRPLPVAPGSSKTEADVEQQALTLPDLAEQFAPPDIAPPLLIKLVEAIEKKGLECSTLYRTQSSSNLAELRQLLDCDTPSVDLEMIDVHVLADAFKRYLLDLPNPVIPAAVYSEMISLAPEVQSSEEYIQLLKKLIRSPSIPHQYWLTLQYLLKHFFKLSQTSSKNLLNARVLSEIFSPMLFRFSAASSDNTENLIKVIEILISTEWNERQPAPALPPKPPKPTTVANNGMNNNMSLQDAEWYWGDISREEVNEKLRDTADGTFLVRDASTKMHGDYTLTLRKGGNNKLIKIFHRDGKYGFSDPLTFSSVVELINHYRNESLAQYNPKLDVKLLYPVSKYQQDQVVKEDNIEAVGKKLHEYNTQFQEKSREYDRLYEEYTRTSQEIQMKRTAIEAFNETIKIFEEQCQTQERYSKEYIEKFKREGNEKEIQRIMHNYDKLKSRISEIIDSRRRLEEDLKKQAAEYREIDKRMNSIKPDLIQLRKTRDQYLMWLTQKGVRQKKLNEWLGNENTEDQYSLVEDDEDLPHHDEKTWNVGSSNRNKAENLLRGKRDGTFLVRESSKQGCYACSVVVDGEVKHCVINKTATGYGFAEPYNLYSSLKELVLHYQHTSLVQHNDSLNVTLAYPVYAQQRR

| IC50 [µM] | SMILES |
| --- | --- |
| 0.344 | N#CN=C(N)Nc1ccc(-c2nc(N3CCOCC3)c3cnn(C4CCN(C(=O)c5cccnc5)CC4)c3n2)cc1 [Compound 655, 2-cyano-1-(4-{4-morpholin-4-yl-1-[1-(pyridin-3-ylcarbonyl)piperidin-4-yl]-1H-pyrazolo[3,4-d]pyrimidin-6-yl}phenyl)guanidine] |
| 1.83 | COC(=O)Nc1ccc(-c2nc(N3CCOCC3)c3cnn(C4CCN(Cc5cccnc5OC)CC4)c3n2)cc1 [Compound 696, methyl [4-(1-{1-[(2-methoxypyridin-3-yl)methyl]piperidin-4-yl}-4-morpholin-4-yl-1H-pyrazolo[3,4-d]pyrimidin-6-yl)phenyl]carbamate] |
| 4.11 | CCCOC(=O)Nc1ccc(-c2nc(N3CCOCC3)c3cnn(C4CCN(Cc5ccccc5)CC4)c3n2)cc1 [Compound 255, propyl {4-[1-(1-benzylpiperidin-4-yl)-4-morpholin-4-yl-1H-pyrazolo[3,4-d]pyrimidin-6-yl]phenyl}carbamate] |
| 0.071 | CNC(=S)Nc1ccc(-c2nc(N3CCOCC3)c3cnn(C4CCN(Cc5ccccc5)CC4)c3n2)cc1 [Example 325, 1-{4-[1-(1-benzylpiperidin-4-yl)-4-morpholin-4-yl-1H-pyrazolo[3,4-d]pyrimidin-6-yl]phenyl}-3-methylthiourea] |
| 2.5 | COC(=O)Nc1ccc(-c2nc(N3CCOCC3)c3cnn(C4CCN(C(=O)c5cnccc5C)CC4)c3n2)cc1 [Example 440, methyl [4-(1-{1-[(4-methylpyridin-3-yl)carbonyl]piperidin-4-yl}-4-morpholin-4-yl-1H-pyrazolo[3,4-d]pyrimidin-6-yl)phenyl]carbamate] |
| 0.813 | Cn1ncc2c(N3CCOCC3)nc(-c3cccnc3)nc21 [Compound 1] |
| 1.01 | COC(=O)Nc1ccc(-c2nc(N3CCOCC3)c3cnn(C4CCN(C(=O)c5ccccc5)CC4)c3n2)cc1 [Compound 686, methyl {4-[1-(1-benzoylpiperidin-4-yl)-4-morpholin-4-yl-1H-pyrazolo[3,4-d]pyrimidin-6-yl]phenyl}carbamate] |
| 3.62 | Nc1cc(F)c(-c2nc(N3CCOCC3)c3cnn(C4CCN(C(=O)c5cccnc5)CC4)c3n2)cc1F [Compound 464, 2,5-difluoro-4-{4-morpholin-4-yl-1-[1-(pyridin-3-ylcarbonyl)piperidin-4-yl]-1H-pyrazolo[3,4-d]pyrimidin-6-yl}aniline] |
| 0.118 | CNC(=O)Nc1ccc(-c2nc(N3CCOCC3)c3cnn(C4CCCCO4)c3n2)cc1 (stereo not drawn) [Compound 935, 1-methyl-3-{4-[4-morpholin-4-yl-1-(tetrahydro-2H-pyran-2-yl)-1H-pyrazolo[3,4-d]pyrimidin-6-yl]phenyl}urea] |
| 1.49 | c1cncc(CN2CCC(n3ncc4c(N5CCOCC5)nc(-c5ccc6c(c5)CCN6)nc43)CC2)c1 [Compound 416, 6-(2,3-dihydro-1H-indol-5-yl)-4-morpholin-4-yl-1-[1-(pyridin-3-ylmethyl)piperidin-4-yl]-1H-pyrazolo[3,4-d]pyrimidine] |
| 0.786 | COC(=O)Nc1ccc(-c2nc(N3CCOCC3)c3cnn(C4CCN(Cc5ccccc5Cl)CC4)c3n2)cc1 [Compound 699, methyl (4-{1-[1-(2-chlorobenzyl)piperidin-4-yl]-4-morpholin-4-yl-1H-pyrazolo[3,4-d]pyrimidin-6-yl}phenyl)carbamate] |
| 1.54 | CNC(=O)Nc1cc(F)c(-c2nc(N3CCOCC3)c3cnn(C4CCN(C(=O)c5cccnc5)CC4)c3n2)cc1F [Example 465, 1-(2,5-difluoro-4-{4-morpholin-4-yl-1-[1-(pyridin-3-ylcarbonyl)piperidin-4-yl]-1H-pyrazolo[3,4-d]pyrimidin-6-yl}phenyl)-3-methylurea] |
| 0.585 | COC(=O)Nc1ccc(-c2nc(N3CCOCC3)c3cnn(C4CCN(CC(=O)c5ccccc5)CC4)c3n2)cc1 [Compound 701, methyl (4-{4-morpholin-4-yl-1-[1-(2-oxo-2-phenylethyl)piperidin-4-yl]-1H-pyrazolo[3,4-d]pyrimidin-6-yl}phenyl)carbamate] |
| 4.92 | CNC(=O)Nc1ccc(-c2nc(N3CCOCC3)c3cnn(C4CCCCO4)c3n2)cc1 (stereo not drawn) [Example 235, 1-methyl-3-{4-[4-morpholin-4-yl-1-(tetrahydro-2H-pyran-2-yl)-1H-pyrazolo[3,4-d]pyrimidin-6-yl]phenyl}urea] |
| 9.5 | C[C@@H]1CN(c2nc(-c3cccc(O)c3)nc3c2cnn3-c2ccccc2)C[C@H](C)O1 [Compound 478, 3-{4-[(2R,6S)-2,6-dimethylmorpholin-4-yl]-1-phenyl-1H-pyrazolo[3,4-d]pyrimidin-6-yl}phenol] |
| 2 | COCOc1cncc(-c2nc(N3CCOCC3)c3cnn(C4CCN(Cc5ccccc5)CC4)c3n2)c1 [Compound 249, 1-(1-benzylpiperidin-4-yl)-6-[5-(methoxymethoxy)pyridin-3-yl]-4-morpholin-4-yl-1H-pyrazolo[3,4-d]pyrimidine] |

| IC50 [µM] | SMILES |
| --- | --- |
| 0.043 | CNC(=O)Nc1ccc(-c2nc(N3CCOCC3)c3cnn(C4CCN(Cc5cccc(OC)c5)CC4)c3n2)cc1 [Compound 645, 1-(4-{1-[1-(3-methoxybenzyl)piperidin-4-yl]-4-morpholin-4-yl-1H-pyrazolo[3,4-d]pyrimidin-6-yl}phenyl)-3-methylurea] |
| 0.063 | CNC(=O)Nc1ccc(-c2nc(N3CCOCC3)c3cnn(C4CCN(Cc5ccco5)CC4)c3n2)cc1 [Compound 647, 1-(4-{1-[1-(2-furylmethyl)piperidin-4-yl]-4-morpholin-4-yl-1H-pyrazolo[3,4-d]pyrimidin-6-yl}phenyl)-3-methylurea] |
| 1.07 | COC(=O)Nc1ccc(-c2nc(N3CCOCC3)c3cnn(C4CCNCC4)c3n2)cc1 [Compound 703, methyl [4-(4-morpholin-4-yl-1-piperidin-4-yl-1H-pyrazolo[3,4-d]pyrimidin-6-yl)phenyl]carbamate] |
| 0.888 | COC(=O)Nc1ccc(-c2nc(N3CCOCC3)c3cnn(C4CCN(C(=O)c5ccccc5OC)CC4)c3n2)cc1 [Compound 690, methyl (4-{1-[1-(2-methoxybenzoyl)piperidin-4-yl]-4-morpholin-4-yl-1H-pyrazolo[3,4-d]pyrimidin-6-yl}phenyl)carbamate] |
| 0.08 | CNC(=O)Nc1ccc(-c2nc(N3CCOCC3)c3cnn(C4CCN(C(=O)c5ccccc5F)CC4)c3n2)cc1 [Example 354, 1-(4-{1-[1-(2-fluorobenzoyl)piperidin-4-yl]-4-morpholin-4-yl-1H-pyrazolo[3,4-d]pyrimidin-6-yl}phenyl)-3-methylurea] |
| 3.11 | CCNC(=O)Nc1cc(F)c(-c2nc(N3CCOCC3)c3cnn(C4CCN(C(=O)c5cccnc5)CC4)c3n2)cc1F [Compound 710, 1-(2,5-difluoro-4-{4-morpholin-4-yl-1-[1-(pyridin-3-ylcarbonyl)piperidin-4-yl]-1H-pyrazolo[3,4-d]pyrimidin-6-yl}phenyl)-3-ethylurea] |
| 0.229 | O=C(NCCO)Nc1ccc(-c2nc(N3CCOCC3)c3cnn(C4CCN(C(=O)c5ccccc5)CC4)c3n2)cc1 [Compound 630, 1-{4-[1-(1-benzoylpiperidin-4-yl)-4-morpholin-4-yl-1H-pyrazolo[3,4-d]pyrimidin-6-yl]phenyl}-3-(2-hydroxyethyl)urea] |
| 1.43 | COC(=O)Nc1ccc(-c2nc(N3CCOCC3)c3cnn(C4CCN(CC(N)=O)CC4)c3n2)cc1 [Compound 700, methyl (4-{1-[1-(2-amino-2-oxoethyl)piperidin-4-yl]-4-morpholin-4-yl-1H-pyrazolo[3,4-d]pyrimidin-6-yl}phenyl)carbamate] |
| 0.018 | CNC(=O)Nc1ccc(-c2nc(N3CCOCC3)c3cnn(C4CCN(Cc5ccc(Cl)cc5)CC4)c3n2)cc1 [Compound 639, 1-(4-{1-[1-(4-chlorobenzyl)piperidin-4-yl]-4-morpholin-4-yl-1H-pyrazolo[3,4-d]pyrimidin-6-yl}phenyl)-3-methylurea] |
| 0.036 | Oc1cncc(-c2nc(N3CCOCC3)c3cnn(C4CCN(Cc5ccccc5)CC4)c3n2)c1 [Compound 930, 5-[1-(1-benzylpiperidin-4-yl)-4-morpholin-4-yl-1H-pyrazolo[3,4-d]pyrimidin-6-yl]pyridin-3-ol] |
| 9.02 | COC(=O)Nc1cccc(-c2nc(N3CCOCC3)c3cnn(C4CCN(Cc5ccccc5)CC4)c3n2)c1 [Compound 227, methyl {3-[1-(1-benzylpiperidin-4-yl)-4-morpholin-4-yl-1H-pyrazolo[3,4-d]pyrimidin-6-yl]phenyl}carbamate] |
| 2 | COCOc1cncc(-c2nc(N3CCOCC3)c3cnn(C4CCN(Cc5ccccc5)CC4)c3n2)c1 [Compound 931, 1-(1-benzylpiperidin-4-yl)-6-[5-(methoxymethoxy)pyridin-3-yl]-4-morpholin-4-yl-1H-pyrazolo[3,4-d]pyrimidine] |
| 0.211 | CNC(=O)Nc1ccc(-c2nc(N3CCOCC3)c3cnn(C4CCN(C)CC4)c3n2)cc1 [Compound 646, 1-methyl-3-{4-[1-(1-methylpiperidin-4-yl)-4-morpholin-4-yl-1H-pyrazolo[3,4-d]pyrimidin-6-yl]phenyl}urea] |
| 0.119 | Nc1ccc(-c2nc(N3CCOCC3)c3cnn(C4CCCCO4)c3n2)cc1 (stereo not drawn) [Compound 264, 4-[4-morpholin-4-yl-1-(tetrahydro-2H-pyran-2-yl)-1H-pyrazolo[3,4-d]pyrimidin-6-yl]aniline] |
| 0.16 | CNC(=O)Nc1ccc(-c2nc(N3CCOCC3)c3cnn(C4CCN(C(=O)c5ccncc5)CC4)c3n2)cc1 [Example 417, 1-{4-[1-(1-isonicotinoylpiperidin-4-yl)-4-morpholin-4-yl-1H-pyrazolo[3,4-d]pyrimidin-6-yl]phenyl}-3-methylurea] |
| 0.198 | CNC(=O)Nc1ccc(-c2nc(N3CCOCC3)c3cnn(C4CCN(C(=O)c5cnccn5)CC4)c3n2)cc1 [Compound 666, 1-methyl-3-(4-{4-morpholin-4-yl-1-[1-(pyrazin-2-ylcarbonyl)piperidin-4-yl]-1H-pyrazolo[3,4-d]pyrimidin-6-yl}phenyl)urea] |

| SMILES | IC50 [µM] |
| --- | --- |
| NCCC(=O)Nc1ccc(-c2nc(N3CCOCC3)c3cn[nH]c3n2)cc1 [Compound 529, N-[4-(4-morpholin-4-yl-1H-pyrazolo[3,4-d]pyrimidin-6-yl)phenyl]-b-alaninamide] | 0.202 |
